Where two headings read alike, the source gives them in different places.
Legend:
[1] = tested on: LPS-induced expression of COX-2, IL-6 and TNFα; assay: LPS-induced cytokine and COX-2 gene expression in human macrophages (qPCR); assay type: cell-based; conditions: 10 ng/ml LPS, 100 μM SA or 1 μM ac3AESA
Procedure: Human HeLa cells were grown in T75 flasks in DMEM medium supplemented with penicillin (10,000 IU/mL) streptomycin ([…]), and 10% fetal calf serum. Ptgs2−/− MEFs were derived from Ptgs2−/− E16 mouse embryos, obtained from the mating of Ptgs2+/− mice purchased from Taconic Biosciences. PBMCs were isolated from buffy coats of donor blood (Hospital of Magenta, Milan, Italy) by Ficoll gradient centrifugation (Lymphoprep; AXIS-SHIELD. CD14+ monocytes were isolated by positive immunoselection (CD14 Microbeads; Miltenyi Biotec) according to the manufacturer's instructions, and differentiated into macrophages using X-Vivo medium supplemented with 1% heat inactivated human serum, GM-CSF, and M-CSF.
Total RNAs were isolated using the Illustra RNAspin Mini kit (GE Healthcare), and complementary DNA (cDNA) was obtained by retro-transcription with oligo(dT) primers (Invitrogen, Carlsbad, Calif., USA) and SuperScript II Reverse Transcriptase (Invitrogen) following the manufacturers' instructions. Quantitative real-time PCR was performed using a LightCycler480 (Roche Molecular Diagnostics), in duplicates, using SYBR Green I master mix and the oligonucleotides listed in Table of primers below. The ΔCt method was used for quantification, and the β-actin gene was used for normalization.

R50A/K54A mutant AtHMGB3 = biological target: T1, R50A/K54A mutant AtHMGB3 (Arabidopsis thaliana, UniProt P93047, K54A/R50A); assay: MAPK activation assay with mutant R50A/K54A AtHMGB3; conditions: in vivo
T1 construct: providing a full length Arabidopsis thaliana HMGB1 or HMGB3 (AtHMGB1 or AtHMGB3) protein; made in house
T1 sequence (P93047 whole entry R50A/K54A): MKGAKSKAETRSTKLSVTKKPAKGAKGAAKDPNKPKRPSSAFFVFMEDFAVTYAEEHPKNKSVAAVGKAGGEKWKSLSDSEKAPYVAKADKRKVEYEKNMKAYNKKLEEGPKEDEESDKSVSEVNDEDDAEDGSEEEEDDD
Procedure: To detect the phosphorylation of Arabidopsis MAPKs (MPK3/4/6), 3 to 4 week-old soil grown Arabidopsis leaves were infiltrated with 1 μM AtHMGB3 or 1 μM Pep1 peptide ([…]; synthesized by GenScript USA Inc.). […] Proteins were extracted using lacus buffer (25 mM Tris-HCl, pH 7.5, 15 mM MgCl2, 15 mM EGTA, 75 mM NaCl, 1 mM DTT, 0.1% NP-40, 5 mM p-nitrophenylphosphate, 60 mM β-glycerophosphate, 0.1 mM […], 1 mM NaF, 1 mM PMSF, 5 μg/ml leupeptin, 5 μg/ml aprotinin), and then centrifuged at 15,000 g for 10 min at 4 ° C. to remove cell debris.
Thus, these residues (R50 and K54) were mutated to Ala, and the resulting mutant AtHMGB3 tested for its ability to activate MPK3/6 and induce callose deposition in the absence or presence of SA. The R50A/K54A mutant AtHMGB3 retained its ability to activate MPK3/6 and induce callose deposition, but inhibition of these activities by SA was lost (FIG. 7H,I and FIG. 8).

HMGB1^RE [2] = assay: Chemotaxis assay (Boyden chambers): HMGB1^RE-elicited migration of mouse 3T3 fibroblasts; assay type: cell-based; conditions: chemo-attractant and cytokine-inducing activities vs literature COX-2 inhibition
Procedure: (§1) Cell migration was assayed using Boyden chambers (Venereau et al., 2012). The downside of PVP-free polycarbonate filters (8 μm pores; Millipore) was coated with 50 μg/ml fibronectin (Sigma). Serum-free DMEM (negative control), DMEM containing 0.1 nM fMLP (positive control; Sigma), or DMEM containing 1 nM HMGB1^RE or HMGB1^SS were placed in the lower chamber, together with different concentrations of SA (Sigma). The mouse 3T3 fibroblast cells were cultured in DMEM media supplemented with 10% CS until 90% confluence, washed twice with PBS to eliminate any floating cells, and harvested with trypsin. 50,000 cells in 200 μL were added to the upper chamber, and cells were left to migrate for 3 h at 37° C. Non-migrating cells were removed with a cotton swab, and migrated cells were fixed with ethanol and stained with Giemsa.
(§2) HMGB1^RE acts as a chemo-attractant that mediates migration of several cell types, including monocytes, fibroblasts, mesoangioblasts, smooth muscle cells, and colon cancer cells (Venereau et al., 2012). To determine whether SA alters HMGB 1's chemo-attractant activity, a chemotaxis assay was performed with mouse 3T3 fibroblasts.

HMGB1^RE [3] = biological target: T2, HMGB1^RE (Homo sapiens, UniProt P09429); assay: as above; assay type: cell-based
T2 construct: (i) full length: residues 2-215; 6x His (cleaved yes); made in house; host or cells: Escherichia coli BL21
T2 sequence (P09429 2-215): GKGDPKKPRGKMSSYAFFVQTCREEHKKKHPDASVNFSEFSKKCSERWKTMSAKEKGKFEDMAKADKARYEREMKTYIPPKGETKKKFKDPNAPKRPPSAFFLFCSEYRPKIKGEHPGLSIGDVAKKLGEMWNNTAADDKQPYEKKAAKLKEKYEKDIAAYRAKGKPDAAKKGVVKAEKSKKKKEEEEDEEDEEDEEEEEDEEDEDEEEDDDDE
Procedure: as §1, §2

HMGB1-CXCL12 Complex = biological target: T3, HMGB1-CXCL12 Complex (Homo sapiens, UniProt P09429, DEL90-93); assay: WaterLOGSY NMR with HMGB1/CXCL12 complex; assay type: binding; conditions: 6 mM SA or 5 mM ac3AESA, 20 μM complex
T3 construct: (i) full length: residues 2-215; full-length disulfide-intact CXCL12; hexaHis (TEV-cleavable) (N, cleaved yes)
T3 sequence (P09429 2-215 limits assumed): T2 sequence (P09429 2-215)
Text: NMR can be used to detect protein ligand interactions either by protein-detected experiments (Lepre, Moore et al. 2004), detecting changes in the frequencies of resonances of the protein sample due to ligand binding (protein-detected chemical shift perturbation (CSP) experiments), or by ligand-detected experiments (Lepre, Moore et al. 2004), in which NMR properties of the ligands due to ligand-protein interactions are detected. Protein-detected ligand binding experiments are usually done using isotope-enriched protein samples which can be studied by isotope-filtered NMR experiments, including for example ^15N-^1H-HSQC (Kay, Keifer et al. 1992). Ligand-detected experiments include the Waterlogsy experiment (Meyer and Peters 2003, Lepre, Moore et al. 2004, Furihata, Shimotakahara et al. 2008), which detects interactions in the ternary complex formed by the protein, the ligand, and one or more water molecules, and the Saturation Transfer Difference (STD) NMR experiments (Mayer and Meyer 2001, Lepre, Moore et al. 2004, Wang, Liu et al. 2004), which detects magnetization transfer from the protein to the ligand in the protein-ligand complex. The Waterlogsy experiment is a more sensitive experiment, typically employed to detect qualitatively if there is an interaction between protein and ligand. […]

## O=C(O)c1ccccc1O [SA, salicylic acid]
[1]
  effect on LPS-induced expression of cytokine and COX-2 genes: did not suppress
R50A/K54A mutant AtHMGB3
  inhibition by SA of MPK3/6 activation by R50A/K54A AtHMGB3: lost
HMGB1^RE [2]
  concentration inhibiting HMGB1 bioactivities, fold below that required to inhibit COX-2's enzyme activity: 10-50 fold
HMGB1^RE [3]; mouse 3T3 fibroblasts, 1 nM HMGB1^RE, read-out: IC50, inhibition of HMGB1^RE-elicited migration of fibroblasts
  IC50: 3 to 4 µM
HMGB1^RE [3]; read-out: IC50, inhibition of HMGB1^RE-induced chemotaxis
  IC50: 3.26 to 4.34 µM
HMGB1-CXCL12 Complex
  WaterLOGSY binding to complex formed between CXCL12 and HMGB1: binds
